Laboratory results as given in publication PMC4841940 (Molecular cell, 2016).
pKd: −log10 of the molar value. Entries after “also recorded” stand apart in the source; their conditions may differ. One block for each compound: values may come before it.

Columns and labels:
[1] = test system: RAW264.7 cells, AF9KO + F59A; test: qRT-PCR, AF9 KO with F59A addback; assay type: cell-based, mouse; conditions: crotonate pre-treatment before LPS
RAW264.7 cells, AF9 KO = test: qRT-PCR of crotonate-responsive genes, AF9 knockout; assay type: cell-based, mouse; conditions: crotonate pre-treatment before LPS
[2] = test system: AF9 recruitment to genes in RAW264.7 cells; test: FLAG-AF9 ChIP-seq in RAW264.7 cells; assay type: cell-based, mouse; conditions: 10mM crotonate pre-treatment then LPS
[3] = test system: RAW264.7 cells (parental); test: qRT-PCR of crotonate-responsive genes, parental cells; assay type: cell-based, mouse; conditions: crotonate pre-treatment before LPS
[4] = test system: RAW264.7 cells, AF9KO + WT; test: qRT-PCR, AF9 KO with wild type AF9 addback; assay type: cell-based, mouse; conditions: crotonate pre-treatment before LPS
[5] = test system: FLAG-AF9 (F59A) recruitment in RAW264.7 cells; test: FLAG-ChIP-qPCR, FLAG-AF9; assay type: cell-based, mouse; conditions: increasing concentrations of crotonate, then LPS; Rsad2, Il6, Ifit1, Cmpk2, Gbp2
[6] = test system: FLAG-AF9 (WT) recruitment in RAW264.7 cells; test: FLAG-ChIP-qPCR, FLAG-AF9; assay type: cell-based, mouse; conditions: increasing concentrations of crotonate, then LPS; Rsad2, Il6, Ifit1, Cmpk2, Gbp2
[7] = test system: histone crotonylation (H3K18cr) / crotonyl-CoA; conditions: ref Sabari et al., 2015, cited from earlier work
[8] = target: second bromodomain of BRD3 (UniProt Q15059); test: ITC
UniProt Q15059, sequence (Q15059 307-416): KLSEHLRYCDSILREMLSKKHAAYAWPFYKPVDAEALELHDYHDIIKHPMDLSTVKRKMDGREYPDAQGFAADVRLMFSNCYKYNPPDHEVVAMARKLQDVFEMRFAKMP

[9] = target: AF9 YEATS domain, wild type (UniProt P42568); test: ITC
UniProt P42568, sequence (P42568 1-138): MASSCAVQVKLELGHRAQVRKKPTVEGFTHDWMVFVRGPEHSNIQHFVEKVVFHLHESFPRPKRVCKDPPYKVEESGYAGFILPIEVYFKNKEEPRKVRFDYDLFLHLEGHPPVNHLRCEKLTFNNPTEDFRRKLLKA

Compound: C/C=C/C(=O)O [crotonate]
rescue of crotonate response, AF9 (F59A) addback [1]: not mutant AF9 (F59A) rescued this reduction
crotonate response in AF9 KO cells (RAW264.7 cells, AF9 KO): significantly reduced response; also recorded: significantly reduced the crotonate response in our model system, but did not abolish it completely
FLAG-AF9 ChIP-seq signal ([2]; metagene analysis): FLAG-AF9 signal was higher with crotonate treatment only for crotonate responsive genes
mean fold-change in FLAG-AF9 RPKM, crotonate unresponsive genes ([2]; ± 1kb TSS, 233 genes): 0.92 fold
expression of Ccl3 (non-responsive gene) [3]: unaffected by crotonate pre-treatment
rescue of crotonate response, wild type AF9 addback [4]: addback of wild type AF9 but not mutant AF9 (F59A) rescued this reduction
AF9 (F59A) ChIP-qPCR signal, crotonate [5]: the F59A mutant is unresponsive
AF9 (WT) ChIP-qPCR signal [6]: AF9 signal increases with increasing concentrations of crotonate
effect on crotonyl-CoA and acetyl-CoA ([7]; cellular concentrations): selectively increases cellular concentrations of crotonyl-CoA, the high-energy donor of crotonyl, while leaving acetyl-CoA, the high-energy donor of acetyl, unaffected
effect on Kcr vs Kac [7]: specifically enhances Kcr, and does not significantly affect Kac

Compound: H3K18bu peptide (acylation series of Figure 4C)
fold reduced affinity against H3K18ac [8]: 38 fold

Compound: histone H3_(1–15)K9ac peptide (from UniProt P68431 2-16)
pKd [9]: 5.30

The remaining lines, values ahead:

fold reduced affinity against H3K18ac [8]: 4 fold
Compound: H3K18pr peptide (acylation series of Figure 4C)

pKd [9]: 3.30
Compound: histone H3_(1–15)K9su peptide (from UniProt P68431 2-16)
